PubChem BioAssay (NCI)
“And” between values parts separate entries of the source, which are not always exact repeats. Equal values may be shown once.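 Method: 48-hour compound exposure of cells in 96-well plates, five concentrations, linear interpolation of endpoints. The concentration for 50% growth inhibition is given as GI50. TGI: total growth inhibition.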

How the values were obtained:
Experiment in all cases: DTP human tumour cell line panel, 48 h
MALME-3M melanoma = test system: MALME-3M melanoma
A498 renal = test system: A498 renal
NCI-H226 lung = test system: NCI-H226 lung
COLO 205 colon = test system: COLO 205 colon
HCT-116 colon = test system: HCT-116 colon
A549 NSCLC = test system: A549 NSCLC
NCI-H522 lung = test system: NCI-H522 lung
NCI-H23 lung = test system: NCI-H23 lung
NCI/ADR-RES ovarian = test system: NCI/ADR-RES ovarian
HOP-92 NSCLC = test system: HOP-92 NSCLC
MDA-N = test system: MDA-N
T-47D breast = test system: T-47D breast

`NC(N)=Nc1ccc(CC(N)C(=O)O)cc1` (stereo unspecified) showed a TGI (MALME-3M melanoma) of over 12.5 µM, a TGI (A498 renal) of over 12.5 µM and a TGI (NCI-H226 lung) of over 12.5 µM. For the same compound, the TGI (COLO 205 colon) was over 12.5 µM, the TGI (HCT-116 colon) was over 12.5 µM and the TGI (A549 NSCLC) was over 12.5 µM. For the same compound, the TGI (NCI-H522 lung) was over 12.5 µM, the TGI (NCI-H23 lung) was over 12.5 µM and the TGI (NCI/ADR-RES ovarian) was over 12.5 µM. It also gave a TGI (HOP-92 NSCLC) of over 12.5 µM, a TGI (MDA-N) of over 12.5 µM and a TGI (T-47D breast) of over 12.5 µM.

In the case of `O=C1CSC(c2cccc([N+](=O)[O-])c2)N1c1ccc(-n2c(-c3ccccc3)nc3ccccc3c2=O)cc1` (stereo unspecified), the TGI (MALME-3M melanoma) is reported as over 100 µM, the TGI (A498 renal) is reported as over 100 µM and the TGI (NCI-H226 lung) is reported as over 100 µM. It also gave a TGI (COLO 205 colon) of over 100 µM, a TGI (HCT-116 colon) of over 100 µM and a TGI (A549 NSCLC) of over 100 µM. It also gave a TGI (NCI-H522 lung) of over 100 µM, a TGI (NCI-H23 lung) of over 100 µM and a TGI (NCI/ADR-RES ovarian) of over 100 µM. It also gave a TGI (HOP-92 NSCLC) of over 100 µM, a TGI (MDA-N) of over 100 µM and a TGI (T-47D breast) of over 100 µM.

`O=[N+]([O-])c1cc(-c2nc(-c3ccccc3)c(-c3ccccc3)[nH]2)c(O)c([N+](=O)[O-])c1` gave a TGI (MALME-3M melanoma) of 52 µM, a TGI (A498 renal) of 40.5 µM and a TGI (NCI-H226 lung) of 40.7 µM. For the same compound, the TGI (COLO 205 colon) was 45.1 µM, the TGI (HCT-116 colon) was 33.4 µM and the TGI (A549 NSCLC) was over 100 µM. For the same compound, the TGI (NCI-H522 lung) was 63.7 µM, the TGI (NCI-H23 lung) was 36.1 µM and the TGI (NCI/ADR-RES ovarian) was 56.7 µM. For the same compound, the TGI (HOP-92 NSCLC) was 36.9 µM, the TGI (MDA-N) was over 100 µM and the TGI (T-47D breast) was 68.3 µM.

In the case of `CCCCn1c2c(n(CCCC)c1=S)-c1c(n(CCCC)c(=S)n1CCCC)SSc1c(n(CCCC)c(=S)n1CCCC)-c1c(n(CCCC)c(=S)n1CCCC)SSc1c(n(CCCC)c(=S)n1CCCC)-c1c(n(CCCC)c(=S)n1CCCC)SS2`, the TGI (MALME-3M melanoma) is reported as 6.19 µM, the TGI (A498 renal) is reported as over 50 µM and the TGI (NCI-H226 lung) is reported as over 38.4 µM. The TGI (COLO 205 colon) was 14.7 µM, the TGI (HCT-116 colon) was over 27.7 µM and the TGI (A549 NSCLC) was over 50 µM. It also gave a TGI (NCI-H522 lung) of 1.86 µM, a TGI (NCI-H23 lung) of over 50 µM and a TGI (NCI/ADR-RES ovarian) of over 50 µM. It also gave a TGI (HOP-92 NSCLC) of 3.53 µM, a TGI (MDA-N) of over 46 µM and a TGI (T-47D breast) of 9.51 µM.

For `COC(=O)C1OC(O[C@H]2CC[C@]3(C)[C@H]4CC=C5[C@@H]6CC(C)(C)CC[C@]6(C(=O)OC6OCC(O)C(O)C6OC6OC(C)C(OC7OCC(O)C(O)C7O)C(O)C6O)CC[C@@]5(C)[C@]4(C)CC[C@H]3C2(C)C)C(O)C(O)C1O` (stereo partly specified), the TGI (MALME-3M melanoma) was 29 µM and 32.8 µM, the GI50 (A498 renal) was 7.25 µM and 20.7 µM and the TGI (A498 renal) was 20 µM and 35.3 µM. The TGI (NCI-H226 lung) was 37.7 µM and 37.2 µM, the TGI (COLO 205 colon) was 25.8 µM and 30.6 µM and the TGI (HCT-116 colon) was 33.1 µM and 37.5 µM. The TGI (A549 NSCLC) was 33 µM and 41 µM, the TGI (NCI-H522 lung) was 30.9 µM and 30.5 µM and the TGI (NCI-H23 lung) was 29.1 µM and 30 µM. The GI50 (NCI/ADR-RES ovarian) was 24 µM and > 100 µM, the TGI (NCI/ADR-RES ovarian) was over 100 µM and the TGI (HOP-92 NSCLC) was 30.9 µM and 39.4 µM. For the same compound, the TGI (MDA-N) was 29.3 µM and 33.1 µM and the TGI (T-47D breast) was > 100 µM and 54.2 µM.

`CC1=C(C)Cc2c(O)ccc(O)c2C1` gave a TGI (MALME-3M melanoma) of 31.6 µM, a TGI (A498 renal) of over 100 µM and a TGI (NCI-H226 lung) of 42.1 µM. For the same compound, the TGI (COLO 205 colon) was 34.7 µM, the TGI (HCT-116 colon) was 29.5 µM and the TGI (A549 NSCLC) was 41.9 µM. For the same compound, the TGI (NCI-H23 lung) was over 100 µM, the TGI (NCI/ADR-RES ovarian) was over 100 µM and the TGI (HOP-92 NSCLC) was 36.4 µM. The TGI (MDA-N) was 30.7 µM and the TGI (T-47D breast) was 63.4 µM.

With `O=C1Oc2cc(O)cc(/C=C/c3ccc(O)cc3)c2[C@@]12c1c(O)cc(O)cc1OC2c1cccc(O)c1` (stereo partly specified) the TGI (MALME-3M melanoma) was over 100 µM, the TGI (NCI-H226 lung) was 93.2 µM and the TGI (COLO 205 colon) was 69.7 µM. It also gave a TGI (HCT-116 colon) of over 100 µM, a TGI (A549 NSCLC) of over 100 µM and a TGI (NCI-H23 lung) of 73.4 µM. For the same compound, the TGI (NCI/ADR-RES ovarian) was over 100 µM, the TGI (HOP-92 NSCLC) was over 100 µM and the TGI (MDA-N) was 93.2 µM. The TGI (T-47D breast) was over 100 µM.

With `COC(=O)C1(C)C=CC(=O)C2(C)C1C(O)C1OC3CC(c4ccoc4)C(C)=C3C1(C)C2CC(=O)O` (stereo unspecified) the TGI (MALME-3M melanoma) was over 100 µM, the TGI (A498 renal) was over 100 µM and the TGI (COLO 205 colon) was over 100 µM. For the same compound, the TGI (HCT-116 colon) was over 100 µM, the TGI (A549 NSCLC) was over 100 µM and the TGI (NCI-H522 lung) was over 100 µM. The TGI (NCI-H23 lung) was over 100 µM, the TGI (NCI/ADR-RES ovarian) was over 100 µM and the TGI (HOP-92 NSCLC) was over 100 µM. The TGI (MDA-N) was over 100 µM and the TGI (T-47D breast) was over 100 µM.

`C=C(C)[C@@H]1CCC2=C[C@H](OC2=O)[C@@]2(C)C[C@@H]2C2=CC(C)=C(O2)[C@H]1O` showed a TGI (MALME-3M melanoma) of over 75 µM, a TGI (A498 renal) of over 75 µM and a TGI (NCI-H226 lung) of over 75 µM. It also gave a TGI (COLO 205 colon) of over 75 µM, a TGI (HCT-116 colon) of over 75 µM and a TGI (A549 NSCLC) of over 75 µM. For the same compound, the TGI (NCI-H522 lung) was 48.2 µM, the TGI (NCI-H23 lung) was over 75 µM and the TGI (NCI/ADR-RES ovarian) was over 75 µM. It also gave a TGI (HOP-92 NSCLC) of over 75 µM, a TGI (MDA-N) of over 75 µM and a TGI (T-47D breast) of over 75 µM.
